Laboratory results taken from patent US8912144B2, “Method for treating stroke via administration of NEP1-40 and inosine” (Children's Medical Center Corporation, priority 2003, dated 2014).

Tested on: corticospinal neurons (CSNs/CSMNs)
Test: Laser-capture microdissection and Illumina microarray gene expression in corticospinal neurons contralateral to stroke
Format: in vivo, rat
Protocol: In a separate group of animals (n=20), layer V pyramidal cells of the sensorimotor cortex were retrogradely labeled by injecting Alexa-Fluor-488-conjugated cholera toxin B subunit (CTB; 300 U/μl in sterile saline) into the cervical spinal cord. For this, animals were anesthetized with a combination of ketamine and Domitor (medetomidine) and a laminectomy was performed at the cervical level of the spinal cord (C2-C4). CTB was stereotaxically delivered into four sites lateral to the corticospinal tract. Injections (1.3 μl) were spaced 1 mm apart on the rostro-caudal axis, and were made 0.5 mm to the left and right of the midline. After allowing two weeks for transport of the tracer, we performed either sham surgery with no treatment (n=6) or stroke surgery combined with saline (n=3) or inosine (n=4) treatment as described above. Seven days later, animals were decapitated under transient gas anesthesia, brains were removed and rinsed in cold RPMI medium, and a tissue block containing the sensorimotor cortex was dissected and placed in OCT Tissue Tek Medium (Sakura Finetek USA Inc., CA) on dry ice within five minutes of death. Ten μm sections were cut onto precleaned Gold Seal RITE-ON glass slides (Gold Seal Prod-ucts, Portsmouth, N.H.), placed on dry ice, and rapidly stored at −80° C.
Slide-mounted sections were thawed and dehydrated in RNAse-free ethanol gradients and xylene. Retro-gradely labeled, fluorescent cortical pyramidal cells in the undamaged hemisphere were individually captured using the Arcturus VERITAS system. ≧500 cells were collected from each animal and stored in Arcturus extraction buffer at −80° C. Total RNA was extracted from cells using the Micro-to-Midi TotalRNA Purification System (Invitrogen, Carlsbad Calif.) and double-amplified using the TargetAmp 2-Round Aminoallyl-aRNA Amplification kit 1.0 (Epicentre, Madison, Wis.). Amplified RNA was checked for average fragment length using the Agilent RNA 6000 Nano LabChip kit (Agilent Technologies, Santa Clara, Calif.) and then biotinylated and hybridized (1 μg) on Illumina RatRef-12 Expression BeadChip arrays (Illumina, San Diego Calif.), querying the expression of >22,000 RefSeq-curated rat transcripts. Results were obtained from a total of 15 samples representing 6 untreated controls, 4 animals with stroke treated with saline and 5 animals with stroke treated with inosine. Slides were processed and scanned with Illumina BeadStation platform according to the manufacturer protocol.
Raw data was analyzed using Bioconductor packages (www.bioconductor.org, (Gentleman et al., 2004)). Low level quality-control analysis was performed using inter-array Pearson correlation and clustering based on variance. Two arrays (1 saline and 1 inosine-treated) were outliers and were excluded from the analysis. Data was normalized using quantile normalization, and analysis of differential expression was performed using a linear model fitting (LIMMA package, (Smyth, 2005). Differentially expressed genes were classified according to gene ontology using Bioconductor packages and online tools (DAVID, http://david.abcc.ncifcrf.gov/). Pathway analysis was carried out using Ingenuity Pathway Analysis (Ingenuity Systems, www.ingenuity.com).

**Q.** What does the source list for `OC[C@H]1O[C@@H](n2cnc3c(O)ncnc32)[C@H](O)[C@@H]1O` [inosine]?
**A.** Signal Intensity, LOC500629 (ILMN_61521, inosine after stroke): 946; Fold-Induction Stroke, ino vs. cntrl, LOC500137 (ILMN_61607): 0.58; Signal Intensity, LOC500137 (ILMN_61607, inosine after stroke): 454; Fold-Induction Stroke, ino vs. cntrl, Slc6a15 (ILMN_61840): 0.43; Signal Intensity, Slc6a15 (ILMN_61840, inosine after stroke): 1093; Fold-Induction Stroke, ino vs. cntrl, Bpnt1 (ILMN_62095): 0.70; Signal Intensity, Bpnt1 (ILMN_62095, inosine after stroke): 283; Fold-induction CSMNs: Ftl1 (ILMN_62100, over and above inosine's effect of decreasing stroke-induced changes): 1.74 fold; Fold-Induction Stroke, ino vs. cntrl, Ddx1 (ILMN_62325): 0.57; Signal Intensity, Ddx1 (ILMN_62325, inosine after stroke): 3553; Fold-induction CSMNs: Timp1 (ILMN_62559, over and above inosine's effect of decreasing stroke-induced changes): 3.74 fold; Fold-Induction Stroke, ino vs. cntrl, Rab18 (ILMN_62620): 0.76; Signal Intensity, Rab18 (ILMN_62620, inosine after stroke): 2230; Fold-induction CSMNs: Eif4ebp1 (ILMN_62651, over and above inosine's effect of decreasing stroke-induced changes): 1.86 fold; Fold-Induction Stroke, ino vs. cntrl, Grinl1a (ILMN_62918): 0.66; Signal Intensity, Grinl1a (ILMN_62918, inosine after stroke): 667; Fold-Induction Stroke, ino vs. cntrl, Ppp1cb (ILMN_62999): 0.42; Signal Intensity, Ppp1cb (ILMN_62999, inosine after stroke): 940; Fold-Induction Stroke, ino vs. cntrl, LOC302559 (ILMN_63077): 0.89; Signal Intensity, LOC302559 (ILMN_63077, inosine after stroke): 1031; Fold-Induction Stroke, ino vs. cntrl, LOC366673 (ILMN_63297): 0.60; Signal Intensity, LOC366673 (ILMN_63297, inosine after stroke): 298; Fold-Induction Stroke, ino vs. cntrl, Rcn2 (ILMN_63299): 0.60; Signal Intensity, Rcn2 (ILMN_63299, inosine after stroke): 442; Fold-Induction Stroke, ino vs. cntrl, Gtl6 (ILMN_63474): 0.51; Signal Intensity, Gtl6 (ILMN_63474, inosine after stroke): 302; Fold-Induction, complement cascade gene C2 (ILMN_63608, LCM-captured CSMNs contralateral a stroke): 2.93 fold; Fold-Induction Stroke, ino vs. cntrl, Cdc91l1 (ILMN_63884): 0.82; Signal Intensity, Cdc91l1 (ILMN_63884, inosine after stroke): 529; Fold-Induction Stroke, ino vs. cntrl, LOC306428 (ILMN_63947): 0.42; Signal Intensity, LOC306428 (ILMN_63947, inosine after stroke): 507; Fold-Induction Stroke, ino vs. cntrl, LOC500436 (ILMN_64006): 0.48; Signal Intensity, LOC500436 (ILMN_64006, inosine after stroke): 1871; Fold-Induction Stroke, ino vs. cntrl, LOC366411 (ILMN_64007): 0.51; Signal Intensity, LOC366411 (ILMN_64007, inosine after stroke): 295; Fold-Induction Stroke, ino vs. cntrl, Bcl10 (ILMN_64237): 0.84; Signal Intensity, Bcl10 (ILMN_64237, inosine after stroke): 723; Fold-Induction Stroke, ino vs. cntrl, Magi3 (ILMN_64781): 0.79; Signal Intensity, Magi3 (ILMN_64781, inosine after stroke): 472; Fold-Induction Stroke, ino vs. cntrl, Rtn4 (ILMN_64945): 0.57; Signal Intensity, Rtn4 (ILMN_64945, inosine after stroke): 6518; Fold-Induction Stroke, ino vs. cntrl, LOC500501 (ILMN_65062): 0.79; Signal Intensity, LOC500501 (ILMN_65062, inosine after stroke): 958; Fold-Induction Stroke, ino vs. cntrl, LOC287212 (ILMN_65170): 0.60; Signal Intensity, LOC287212 (ILMN_65170, inosine after stroke): 1634; Fold-Induction Stroke, ino vs. cntrl, LOC499328 (ILMN_65309): 0.53; Signal Intensity, LOC499328 (ILMN_65309, inosine after stroke): 899; Fold-Induction Stroke, ino vs. cntrl, Psmb5 (ILMN_65450): 0.65; Signal Intensity, Psmb5 (ILMN_65450, inosine after stroke): 2709; Fold-Induction Stroke, ino vs. cntrl, Hnrpf (ILMN_65510): 0.86; Signal Intensity, Hnrpf (ILMN_65510, inosine after stroke): 1922; Fold-Induction Stroke, ino vs. cntrl, Psma7 (ILMN_65587): 0.62; Signal Intensity, Psma7 (ILMN_65587, inosine after stroke): 2058; Fold-Induction Stroke, ino vs. cntrl, LOC497663 (ILMN_65610): 0.90; Signal Intensity, LOC497663 (ILMN_65610, inosine after stroke): 416; Fold-Induction Stroke, ino vs. cntrl, Pafah1b2 (ILMN_65657): 0.56; Signal Intensity, Pafah1b2 (ILMN_65657, inosine after stroke): 411; Fold-Induction Stroke, ino vs. cntrl, LOC294046 (ILMN_65667): 0.55; Signal Intensity, LOC294046 (ILMN_65667, inosine after stroke): 2096; Fold-Induction Stroke, ino vs. cntrl, Rchy1 (ILMN_65668): 0.77; Signal Intensity, Rchy1 (ILMN_65668, inosine after stroke): 416; Fold-Induction Stroke, ino vs. cntrl, LOC501181 (ILMN_65702): 0.49; Signal Intensity, LOC501181 (ILMN_65702, inosine after stroke): 268; Fold-Induction Stroke, ino vs. cntrl, Mal (ILMN_65814): 0.40; Signal Intensity, Mal (ILMN_65814, inosine after stroke): 465; Fold-Induction Stroke, ino vs. cntrl, MGC93921 (ILMN_65993): 0.69; Signal Intensity, MGC93921 (ILMN_65993, inosine after stroke): 845; Fold-Induction Stroke, ino vs. cntrl, LOC299179 (ILMN_66036): 0.76; Signal Intensity, LOC299179 (ILMN_66036, inosine after stroke): 385; Fold-Induction Stroke, ino vs. cntrl, LOC317232 (ILMN_66272): 0.70; Signal Intensity, LOC317232 (ILMN_66272, inosine after stroke): 5211; Fold-Induction Stroke, ino vs. cntrl, Spnb4 (ILMN_66300): 0.72
